Experimental data published in ChEMBL document CHEMBL1201862, “PubChem BioAssay data set” (2004).
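Test compounds were applied to cells in 96-well plates for 48 hours at 5 doses. At the GI50, growth is halved.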 Calls of active or inactive are those of the source. No stated cut-off is given here; in the data, active = GI50 up to about 1.1 µM and inactive = higher.

Experiments:
Test in all cases: NCI tumour cell line growth inhibition, 48 h
KM12 = tested on: KM12
TK-10 = tested on: TK-10
ACHN = tested on: ACHN
HOP-92 = tested on: HOP-92
SN12C = tested on: SN12C
EKVX = tested on: EKVX
PC-3 = tested on: PC-3
SF-268 = tested on: SF-268
SR = tested on: SR
Hs-578T = tested on: Hs-578T
UO-31 = tested on: UO-31
LOX IMVI = tested on: LOX IMVI
COLO 205 = tested on: COLO 205
NCI/ADR-RES = tested on: NCI/ADR-RES
RPMI-8226 = tested on: RPMI-8226
K562 = tested on: K562
M14 = tested on: M14
RXF 393 = tested on: RXF 393
SK-MEL-2 = tested on: SK-MEL-2
OVCAR-8 = tested on: OVCAR-8

Measured: GI50

CCOC(=O)C1c2[nH]c3ccccc3c2CCN1C(=O)c1ccc(OC)o1 (stereo not given)
inactive: KM12 > 10 µM | TK-10 > 10 µM | ACHN > 10 µM | HOP-92 > 10 µM | SN12C > 10 µM | EKVX > 10 µM | PC-3 > 10 µM | SF-268 > 10 µM | SR > 10 µM | Hs-578T > 10 µM | UO-31 > 10 µM | LOX IMVI > 10 µM | COLO 205 > 10 µM | NCI/ADR-RES > 10 µM | RPMI-8226 > 10 µM | K562 > 10 µM | M14 > 10 µM | RXF 393 > 10 µM | SK-MEL-2 > 10 µM | OVCAR-8 > 10 µM

CC(C(O)c1ccccc1)C(O)(C(F)(F)F)C(F)(F)F (stereo not given)
inactive: KM12 > 100 µM | TK-10 > 100 µM | ACHN > 100 µM | HOP-92 50.8 µM | SN12C > 100 µM | EKVX > 100 µM | PC-3 > 100 µM | SF-268 > 100 µM | SR > 100 µM | Hs-578T > 100 µM | UO-31 > 100 µM | LOX IMVI > 100 µM | COLO 205 > 100 µM | NCI/ADR-RES > 100 µM | RPMI-8226 > 100 µM | K562 > 100 µM | M14 > 100 µM | RXF 393 > 100 µM | SK-MEL-2 > 100 µM | OVCAR-8 > 100 µM

NCCSc1nc2ccccc2s1
inactive: KM12 45.1 µM | TK-10 24.9 µM | ACHN 33.5 µM | HOP-92 25.5 µM | SN12C 38.7 µM | EKVX 34.4 µM | PC-3 44 µM | SF-268 32.5 µM | SR 25.9 µM | Hs-578T 32.1 µM | UO-31 43.8 µM | LOX IMVI 30.7 µM | COLO 205 > 100 µM | NCI/ADR-RES 42.6 µM | RPMI-8226 31.9 µM | K562 10.6 µM | M14 33.7 µM | RXF 393 29.5 µM | SK-MEL-2 26.1 µM | OVCAR-8 43.2 µM

COc1c(O)cc(O)c2c(=O)cc(-c3ccccc3)oc12 [WOGONIN]
inactive: KM12 34 µM | TK-10 60.8 µM | ACHN 31.4 µM | HOP-92 > 100 µM | SN12C 90.6 µM | EKVX 61.5 µM | PC-3 51.1 µM | SF-268 37.9 µM | SR 22.1 µM | Hs-578T 18.7 µM | UO-31 2.58 µM | LOX IMVI 22.4 µM | COLO 205 64.3 µM | NCI/ADR-RES 60.5 µM | RPMI-8226 17.5 µM | K562 25.1 µM | M14 69 µM | RXF 393 17.5 µM | SK-MEL-2 43.7 µM | OVCAR-8 52.4 µM
